Here are results for one compound from patent publication US20210263120A1, “METHOD OF PERSONALIZED TREATMENT FOR CARDIOMYOPATHY AND HEART FAILURE AND ASSOCIATED DISEASES BY MEASURING EDEMA AND CACHEXIA/SARCOPENIA” (priority 2018, published 2021).

One series concerns the target T1, mouse renin (Mus musculus, UniProt P06281).
T1 construct: Renin enzymatic activity from EDTA-aprotinin supplemented mouse plasma samples; from tissue
T1 sequence (P06281 72-402): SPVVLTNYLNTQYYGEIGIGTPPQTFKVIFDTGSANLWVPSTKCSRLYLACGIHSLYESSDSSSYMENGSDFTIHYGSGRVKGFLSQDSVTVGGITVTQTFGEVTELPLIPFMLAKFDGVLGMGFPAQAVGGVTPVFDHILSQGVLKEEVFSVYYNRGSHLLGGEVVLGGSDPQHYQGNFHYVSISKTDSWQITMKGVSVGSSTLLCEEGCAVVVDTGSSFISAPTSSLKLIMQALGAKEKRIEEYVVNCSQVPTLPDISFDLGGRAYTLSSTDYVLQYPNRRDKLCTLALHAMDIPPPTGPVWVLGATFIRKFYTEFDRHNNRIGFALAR
Description: Plasma renin activity assay (FRET) in plasma of treated DCM mice. The series is classed as in vivo. To be noted: DCM mice at 90 days, vs. untreated DCM control. The protocol: Plasma samples were aliquoted and stored at −80° C. until analysis.

The next series concerns plasma aldosterone. Description: Enzyme immunoassay of plasma aldosterone in treated DCM mice. The series is classed as in vivo, mouse. To be noted: DCM mice at 90 days, vs. untreated DCM control. From the text: (§1) Mice: Dilated cardiomyopathy (DCM) is a major cause of HF, which is associated with pathological dilation of the heart ventricles and declines in heart contractile or systolic function. A well-established, translational mouse model of DCM with reduced ejection fraction (rEF) fulfills the criteria of the American Heart Association Scientific Statement for Animal Models of Heart Failure was utilized in the examples below. The mice used for this study were randomly assigned female littermates with or without (DCM on a C57BL/6 background. DCM mice express a transgene dominant-negative CREB transcription factor specific to cardiomyocytes and consistently develop the progressive stages (A-D) of HF similar to those described for humans. In female mice with DCM renal function remains within a normal range up to the terminal HF stage, as measured by plasma BUN and creatinine. DCM+vehicle (n=28) and DCM+DRI (n=29) were compared to each other. A group of congenic WT mice (n=20) was used for reference. In sub-groups of 90-day old mice (n=8/group), terminal blood was collected via cardiocentesis with ethylenediaminetetraacetic acid (EDTA)-aprotinin syringes to prevent proteolysis of targeted proteins and dissected organs were weighed. […] All analysis and health/death reports were recorded by investigators and animal facility technicians who were blinded to the mouse genotype. […]

Series [1] concerns female mice with dilated cardiomyopathy (DCM). Nature of the series: Kaplan-Meier survival of female mice with DCM. The series is classed as in vivo, mouse. The text has this: (§2) Mice: Dilated cardiomyopathy (DCM) is a major cause of HF, which is associated with pathological dilation of the heart ventricles and declines in heart contractile or systolic function. A well-established, translational mouse model of DCM with reduced ejection fraction (rEF) fulfills the criteria of the American Heart Association Scientific Statement for Animal Models of Heart Failure was utilized in the examples below. The mice used for this study were randomly assigned female littermates with or without (DCM on a C57BL/6 background. DCM mice express a transgene dominant-negative CREB transcription factor specific to cardiomyocytes and consistently develop the progressive stages (A-D) of HF similar to those described for humans. In female mice with DCM renal function remains within a normal range up to the terminal HF stage, as measured by plasma BUN and creatinine. DCM+vehicle (n=28) and DCM+DRI (n=29) were compared to each other. A group of congenic WT mice (n=20) was used for reference. In sub-groups of 90-day old mice (n=8/group), terminal blood was collected via cardiocentesis with ethylenediaminetetraacetic acid (EDTA)-aprotinin syringes to prevent proteolysis of targeted proteins and dissected organs were weighed. The blood samples were centrifuged at 3000 rpm for 20 min at 4° C. Plasma samples were aliquoted and stored at −80° C. until analysis. All analysis and health/death reports were recorded by investigators and animal facility technicians who were blinded to the mouse genotype.
(§3) Aliskiren water was provided ad libitum throughout life.
Statistical Analysis: Statistical analyses were performed with GraphPad Prism 7.04 software (GraphPad Software, La Jolla, Calif., USA) using Student's t-test, one-way ANOVA, or two-way ANOVA with Tukey's multiple comparisons test (unless otherwise indicated) and Pearson's correlation. Survival was analyzed using Kaplan-Meier curves with the Mantel-Cox test. Differences were considered significant if p≤0.05. Data are represented as mean±SE.

Series [2] has the same test system. Description: Echocardiography at 90 days in DCM mice. The series is classed as in vivo, mouse. To be noted: 90 days of age.
For series [3] the test system is unchanged. Nature of the series: Morphometric changes (heart and lung weight to body weight) at 90 days. The series is classed as in vivo, mouse. To be noted: 90 days of age.
From the text: as §1

For series [4] the test system is unchanged. Nature of the series: Body composition by quantitative magnetic resonance (QMR, EchoMRI). The series is classed as in vivo, mouse.
From the text: as §2, §3
Body Composition: Body composition was objectively quantified by a single-blinded and experienced operator. Bodyweight, free water (systemic extracellular water, ECW), total water, body fat, and lean mass were recorded longitudinally. Mice were measured every tenth day between 50-100 days using quantitative magnetic resonance (QMR) technology with an EchoMRI™ 4-in-1 Analyzer (Echo Medical Systems, Houston, Tex., USA). The machine was calibrated daily per standard operating procedure using the provided canola oil (54.3 g) phantom. Briefly, mice were weighed (Scout Pro SP401, Ohaus Corporation, Pine Brook, N.J., USA) and loaded into a tube restrainer specific to the system. Mice were fully conscious and minimally restrained throughout each 60-90 s recording and were returned to their home enclosure following measurement.

For series [5] the following is noted: 100 mg/kg/day orally via drinking water, throughout the treatment period.
Description: Dose calculations were based on an average consumption of 5 mL of water/day/mouse. […] The oral dose was chosen to closely mimic the human route of delivery, while not altering the blood pressure, associated with elevated plasma Ang II-aldosterone levels, given the low bioavailability of the drug in rodents. […] The administration was started at 50 days of age to coincide with the previously identified timeline of increased renin activity and development of stage B HF in female DCM mice]. […] All untreated mice (WT and DCM+vehicle) received ad lib 3 ppm hyperchlorinated facility water via an automated watering system (Edstrom, Waterford, Wis., USA).
For series [6] the following is noted: humans; cited from earlier work.

With `COCCCOc1cc(C[C@@H](C[C@H](N)[C@@H](O)C[C@H](C(=O)NCC(C)(C)C(N)=O)C(C)C)C(C)C)ccc1OC` [aliskiren, aliskiren hemifumarate], the plasma renin activity entry on mouse renin was “significantly reduced elevated plasma renin activity to normal levels”. Also, in the series with plasma aldosterone, the plasma aldosterone levels result is given as “not modulated by treatment”. In addition, the “survival gain expressed as human years” value in series [1] (assuming an 80-year lifespan) is recorded as 5.6 human years. This compound had a median survival in series [1] (female DCM mice, 100 mg/kg/day from 50 days of age, control 103 days) of 110 days. Besides, the “increase in survival vs. control DCM mice” value in series [1] (female DCM mice, median survival +DRI vs. control) came to 7%. In series [2], the “absolute increase in EF vs. DCM+vehicle” value is 5%. Besides, the heart rate in series [2] (anesthetized, control 419±10) is given as 469±14 bpm. In series [2] (vs. DCM control), the “cardiac output (CO; mL/min)” value is on record as “improved”, the “ejection fraction (EF %)” value was “improved” and the “fractional shortening (FS %)” value is on record as “improved”. For the same compound, the “reduction of the gross increase in cardiac weight of control (DCM+vehicle) mice” value in series [3] is on record as 20.4%. The “systemic extracellular water (ECW)” value in series [4] (100 days of age, QMR) is listed as “significantly higher in DCM+vehicle vs. DCM+DRI mice”. Further, in series [4] (100 days, QMR), the “combined fat and lean mass (wasting/cachexia)” value was “combined losses of fat and lean mass in DCM control mice by 100 days relative to WT (p<0.0001) and DCM+DRI mice”; the lean body mass result was “significant decline in lean body mass in DCM control mice at 100 days, consistent with sarcopenia, by comparison to DCM+DRI and WT mice”. Moreover, in series [4] (DCM+DRI vs. DCM+vehicle), the “development of Stage C HF / ECW accumulation (edema)” value is on record as “delayed development of Stage C HF”. Also, the body weights result in series [4] (at 90 days) is given as “not significantly different between groups”. The body weights result in series [4] (at 100 days) is “weights appeared to decline in DCM+vehicle controls compared to WT and DCM+DRI mice”. Also, the body fat result in series [4] (through 100 days, QMR) is “maintenance of fat levels similar to WT through 100 days”. The “side effects or abnormal clinical observations” value in series [5] is “no side effects or abnormal clinical observations”. In addition, in series [6], the bioavailability result is listed as “low”.
